Measurements from patent US12042493B2, “Pharmaceutical compounds for use in treating Huntington's disease” (ADEPTIO PHARMACEUTICALS LIMITED, priority 2018, dated 2024).
Entries after “also recorded” stand apart in the source; their conditions may differ.

Columns and labels:
[1] = tested on: R6/2 mouse model of Huntington's disease; assay: Tremor evaluation in the Tremor Monitor chamber, R6/2 mice; assay type: in vivo; conditions: 3.0 mg/kg p.o., pairwise t-test vs R6/2 Vehicle group, FIG. 3
Procedure: The objective of this study was to investigate the efficacy of (+)-α-dihydrotetrabenazine in the R6/2 mouse model of Huntington's disease. The mice were treated with (+)-α-dihydrotetrabenazine ((+)-α-DHTBZ), tetrabenazine (TBZ) or vehicle starting at 4 weeks of age and continuing until 13 weeks of age. […] The extent of tremor of the mice was evaluated at 7 and 13 weeks of age. […] The mice were placed inside a Tremor Monitor (San Diego Instruments, SDI) chamber for a 10 minute acclimatisation period, following which the tremor activity of the mice was measured for approximately 8 minutes. The recorded frequencies (1-64 hertz) of activity and the number of tremor events were captured electronically. Data were analysed by the Tremor Monitor software (San Diego Instruments) in a two part process. Using a Fast Fourier Transform (FFT), an output was provided showing the percentage of activity (energy) recorded at each frequency. […]

[2] = tested on: R6/2 mouse model of Huntington's disease; assay: Survival rates in R6/2 mouse model of Huntington's disease; assay type: in vivo; conditions: for Number of mice alive at the end of the study / Survival Rate (%): male R6/2 mice
Procedure: The objective of this study was to investigate the efficacy of (+)-α-dihydrotetrabenazine in the R6/2 mouse model of Huntington's disease. The mice were treated with (+)-α-dihydrotetrabenazine ((+)-α-DHTBZ), tetrabenazine (TBZ) or vehicle starting at 4 weeks of age and continuing until 13 weeks of age.
In total, 38 male R6/2 mice and 9 wild type (WT) littermates were used in the study. Mice were dosed from 4 weeks of age until 13 weeks of age. During the course of the study, the body weight of the animals was measured twice-α-week for the whole study duration. At the end of the study, the mice were sacrificed and only tail samples were collected.
All animal experiments were performed as specified in the license authorized by the national Animal Experiment Board of Finland and according to the National Institutes of Health (Bethesda, MD, USA) guidelines for the care and use of laboratory animals. In total, 38 male R6/2 mice and 9 wild type (WT) littermates were used in the study. Only mice with normal plasma bile acid levels were used for the study.
Animals were grouped as follows: • Group 1: 9 male wild-type (WT) mice treated with vehicle (p.o.) from 4-13 weeks of age • Group 2: 9 male R6/2 mice treated with vehicle (p.o.) from 4-13 weeks of age • Group 3: 10 male R6/2 mice treated with (+)-α-DHTBZ (1.5 mg/kg, p.o.) from 4-13 weeks of age • Group 4: 10 male R6/2 mice treated with (+)-α-DHTBZ (3 mg/kg, p.o.) from 4-13 weeks of age • Group 5: 9 male R6/2 mice treated with tetrabenazine (1.5 mg/kg, p.o.) from 4-13 weeks of age
(+)-α-DHTBZ, TBZ and vehicle were administered each day (10 ml/kg, p.o., QD) at approximately the same time of the day for all the mice, starting at 9 a.m.-11 a.m., when the daily dosing was performed at least 1 hour before the tests.
The mice were monitored until end point or the fulfilment of the euthanasia criteria.
A one-tailed, N-1 Two Proportion Test was used to determine statistically significant differences in the survival rates between the treatment groups.

[3] = 1.5 mg/kg p.o. QD from 4-13 weeks of age
[4] = 3.0 mg/kg p.o. QD from 4-13 weeks of age

COc1cc2c(cc1OC)[C@H]1C[C@@H](O)[C@H](CC(C)C)CN1CC2 [(+)-α-DHTBZ, (2R, 3R, 11bR)-3-isobutul-9,10-dimethox-1,3,4,6,7,11b-hexahydro-2H-pyrido[2,1,a]isoquinolin-2-ol]
Tremor Power Spectral Density at 12 Hz [1]: significantly different compared to the R6/2 Vehicle group | Survival rate / lifespan of R6/2 mice versus vehicle or tetrabenazine (in words) ([2]; R6/2 mice, at both 1.5 mg/kg and 3.0 mg/kg, listed as (+)-α-dihydrotetrabenazine): significantly longer than the survival rates of the R6/2 mice treated with vehicle or tetrabenazine; also recorded: prolonged lifespan compared to untreated control R6/2 mice and R6/2 mice that had been treated with tetrabenazine | Number of mice alive at the end of the study [2, 3]: 10 | Survival Rate (%) [2, 3]: 100% | Number of mice alive at the end of the study [2, 4]: 10 | Survival Rate (%) [2, 4]: 100%

COc1cc2c(cc1OC)C1CC(=O)C(CC(C)C)CN1CC2 (racemic) [TBZ, 1,3,4,6,7,11b-hexahydro-9,10-dimethoxy-3-(2-methylpropyl)-2H-benzo(a)quinolizin-2-one, reference compound]
Number of mice alive at the end of the study [2, 3]: 7 | Survival Rate (%) [2, 3]: 77.8%
